Source: PMC12000319, “Proton conductance by human uncoupling protein 1 is inhibited by purine and pyrimidine nucleotides” (The EMBO Journal, 2025)
Several values for one entry are separate records, joined by “and”; a condition that tells them apart may be missing. Equal values may be shown once. Read-outs that look alike come from different tables or passages of the source.

Assays:
[1] = molecular target: T1, human OGC (SLC25A11) (Homo sapiens, UniProt Q02978); test: Differential scanning fluorimetry (nanoDSF) thermal stability shift assay; type: binding; details: 1 mM nucleotide, pH 6.0, single repeats (source data Fig. 4A)
T1 construct: His8 (N, cleaved yes); Factor Xa protease cleavage site (N, cleaved yes); made in house; host or cells: Saccharomyces cerevisiae strain W303.1B
T1 sequence (Q02978 1-314): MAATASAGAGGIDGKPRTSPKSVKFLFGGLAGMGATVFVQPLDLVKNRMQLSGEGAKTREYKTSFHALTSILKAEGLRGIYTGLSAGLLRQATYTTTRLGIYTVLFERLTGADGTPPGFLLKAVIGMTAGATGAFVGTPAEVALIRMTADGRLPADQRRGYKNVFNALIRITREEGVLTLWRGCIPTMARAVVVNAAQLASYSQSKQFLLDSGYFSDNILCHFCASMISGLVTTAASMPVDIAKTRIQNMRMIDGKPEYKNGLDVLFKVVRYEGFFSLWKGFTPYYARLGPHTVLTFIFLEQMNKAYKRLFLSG
Text: UCP1 is phylogenetically related to mitochondrial dicarboxylate carriers, gaining thermogenic properties as a later evolutionary development (Hughes et al, [2009]; Robinson et al, [2008]). The mitochondrial dicarboxylate carrier (DIC, SLC25A10) and oxoglutarate carrier (OGC, SLC25A11) are most closely related to UCP1 (Gaudry et al, [2019]; Hughes et al, [2009]) and share many residues involved in nucleotide binding in UCP1, such as the arginine triplet at the contact points, R92 and Q85 (Jones et al, [2024]). Given the similarity of the central cavity of UCP1, OGC and DIC, we tested whether the dicarboxylate carriers have the ability to bind nucleotides. For this purpose, we purified human DIC and OGC, and tested whether nucleotides were able to generate a thermostability shift, as observed for their physiological substrates (Pyrihová et al, [2024]). However, all tested nucleotides caused a negligible shift with both DIC or OGC at all pH values tested between 6.0 and 8.0 (Fig. 4A; Appendix Fig. S5). Thus, despite having many residues in common (Fig. 4B–D), UCP1 has evolved to have a few specific residues that allow high-affinity binding of nucleotides without a strong selection for nucleobase.
Differential scanning fluorimetry (nanoDSF) (Alexandrov et al, [2008]) was carried out with 2 µg UCP1, DIC or OGC protein (100 mM MES/HEPES, pH range 6.0–8.0, 25 mM NaCl, 1 mM TCEP, 0.01% lauryl maltose neopentyl glycol and 0.01 mg/mL tetraoleoyl cardiolipin) and, when required, 1 mM nucleotide, as indicated. The proteins have the following number of tryptophans: UCP1 (two); OGC (two); DIC (one). The samples were loaded into nanoDSF-grade standard glass capillaries. The temperature was increased by […] every minute from 25 to 95 °C, the intrinsic fluorescence was measured in a Prometheus NT.48 nanoDSF device, and the apparent Tm was calculated with the PR.ThermControl software (NanoTemper Technologies).

[2] = molecular target: T2, UCP1 (Homo sapiens, UniProt P25874); test: Liposome reconstitution and proton conductance assay (pyranine fluorescence); type: biochemical; details: UCP1 proteoliposomes, 200 µM oleic acid + 500 µM nucleotide, 2.5 µM valinomycin; single reconstitutions
T2 construct: His8 (N, cleaved yes); Factor Xa protease cleavage site (N, cleaved yes); made in house; host or cells: Saccharomyces cerevisiae strain W303.1B
T2 sequence (P25874 1-307): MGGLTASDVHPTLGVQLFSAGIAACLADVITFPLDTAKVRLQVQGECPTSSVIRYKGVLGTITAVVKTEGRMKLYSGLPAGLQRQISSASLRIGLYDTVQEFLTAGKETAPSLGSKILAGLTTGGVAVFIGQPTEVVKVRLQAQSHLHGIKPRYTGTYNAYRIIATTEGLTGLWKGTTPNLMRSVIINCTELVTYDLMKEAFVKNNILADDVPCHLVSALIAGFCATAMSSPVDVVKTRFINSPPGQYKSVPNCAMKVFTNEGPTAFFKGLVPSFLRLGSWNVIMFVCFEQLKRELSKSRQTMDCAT

[3] = molecular target: T2, UCP1; test: Differential scanning fluorimetry (nanoDSF) thermal stability shift assay; type: binding
[4] = molecular target: T2, UCP1; test: Isothermal titration calorimetry of nucleotide binding; parameters: isotherm data point (enthalpy change per injection): unit not given here; details: for isotherm data point (enthalpy change per injection): representative isotherm;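 on all read-outs here: purified human UCP1 in cacodylate buffer with lauryl maltose neopentyl glycol and cardiolipin, titrated with nucleotides, isotherms fitted by one-site model yielding ΔH, Kd and stoichiometry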

Cc1cn([C@H]2C[C@H](O)[C@@H](COP(=O)(O)OP(=O)(O)OP(=O)(O)O)O2)c(=O)[nH]c1=O [dTTP, thymidine triphosphate]
change in apparent melting temperature (ΔTm) of hOGC [1]: 0.5 and 0.3
Proton influx rate [2]: 84.11 nmol H+/min and 42.34 nmol H+/min and 68.93 nmol H+/min
difference in ΔTm versus GTP ([3]; 1 mM nucleotide, pH 6.0): 2.7 °C
temperature shift (ΔTm) ([3]; 1 mM nucleotide, pH 6.0, detergent-solubilised UCP1, mean of three biological repeats): 18.9 °C
ΔTm at 1000 µM ([3]; pH 6, read-out: thermal shift (ΔTm), 1 mM nucleotide, pH 6.0, single repeats (source data Fig. 1D)): 19 °C
ΔTm at 1000 µM ([3]; pH 6.5, read-out: thermal shift (ΔTm), 1 mM nucleotide, pH 6.5, single repeats (source data Fig. 1D)): 14.8 °C
ΔTm at 1000 µM ([3]; pH 7, read-out: thermal shift (ΔTm), 1 mM nucleotide, pH 7.0, single repeats (source data Fig. 1D)): 10.1 °C
ΔTm at 1000 µM ([3]; pH 7.5, read-out: thermal shift (ΔTm), 1 mM nucleotide, pH 7.5, single repeats (source data Fig. 1D)): 4 °C
binding affinity to UCP1 (in words) ([4]; ITC): highest binding affinities
Kd ([4]; ITC, pH 6.0, 20 °C, mean ± standard deviation of three biological repeats (Fig. 2A-E)): 1130 ± 90 nM
Kd ([4]; ITC, single biological repeats (source data Fig. 2F)): 1240 nM and 1090 nM and 1070 nM
isotherm data point (enthalpy change per injection) ([4]; Molar ratio (Nucleotide/UCP) 0.120417, pH 6.0, 20 °C): -22.0628
isotherm data point (enthalpy change per injection) ([4]; Molar ratio (Nucleotide/UCP) 0.181226, pH 6.0, 20 °C): -22.1545
isotherm data point (enthalpy change per injection) ([4]; Molar ratio (Nucleotide/UCP) 0.242439, pH 6.0, 20 °C): -21.2571
isotherm data point (enthalpy change per injection) ([4]; Molar ratio (Nucleotide/UCP) 0.304059, pH 6.0, 20 °C): -20.8684
isotherm data point (enthalpy change per injection) ([4]; Molar ratio (Nucleotide/UCP) 0.366087, pH 6.0, 20 °C): -22.682
isotherm data point (enthalpy change per injection) ([4]; Molar ratio (Nucleotide/UCP) 0.428528, pH 6.0, 20 °C): -21.6485
isotherm data point (enthalpy change per injection) ([4]; Molar ratio (Nucleotide/UCP) 0.491383, pH 6.0, 20 °C): -18.3951
isotherm data point (enthalpy change per injection) ([4]; Molar ratio (Nucleotide/UCP) 0.554656, pH 6.0, 20 °C): -20.6625
isotherm data point (enthalpy change per injection) ([4]; Molar ratio (Nucleotide/UCP) 0.618348, pH 6.0, 20 °C): -18.8854
isotherm data point (enthalpy change per injection) ([4]; Molar ratio (Nucleotide/UCP) 0.682464, pH 6.0, 20 °C): -18.4581
isotherm data point (enthalpy change per injection) ([4]; Molar ratio (Nucleotide/UCP) 0.747006, pH 6.0, 20 °C): -16.8767
isotherm data point (enthalpy change per injection) ([4]; Molar ratio (Nucleotide/UCP) 0.811976, pH 6.0, 20 °C): -15.5439
isotherm data point (enthalpy change per injection) ([4]; Molar ratio (Nucleotide/UCP) 0.877378, pH 6.0, 20 °C): -14.5814
isotherm data point (enthalpy change per injection) ([4]; Molar ratio (Nucleotide/UCP) 0.943214, pH 6.0, 20 °C): -11.542
isotherm data point (enthalpy change per injection) ([4]; Molar ratio (Nucleotide/UCP) 1.00949, pH 6.0, 20 °C): -9.131
isotherm data point (enthalpy change per injection) ([4]; Molar ratio (Nucleotide/UCP) 1.0762, pH 6.0, 20 °C): -6.9461
isotherm data point (enthalpy change per injection) ([4]; Molar ratio (Nucleotide/UCP) 1.14336, pH 6.0, 20 °C): -4.409
isotherm data point (enthalpy change per injection) ([4]; Molar ratio (Nucleotide/UCP) 1.21096, pH 6.0, 20 °C): -2.755
isotherm data point (enthalpy change per injection) ([4]; Molar ratio (Nucleotide/UCP) 1.27901, pH 6.0, 20 °C): -1.022
isotherm data point (enthalpy change per injection) ([4]; Molar ratio (Nucleotide/UCP) 1.34751, pH 6.0, 20 °C): -0.7829
isotherm data point (enthalpy change per injection) ([4]; Molar ratio (Nucleotide/UCP) 1.41647, pH 6.0, 20 °C): -1.325
isotherm data point (enthalpy change per injection) ([4]; Molar ratio (Nucleotide/UCP) 1.48589, pH 6.0, 20 °C): -0.8361
isotherm data point (enthalpy change per injection) ([4]; Molar ratio (Nucleotide/UCP) 1.55577, pH 6.0, 20 °C): 0.501
isotherm data point (enthalpy change per injection) ([4]; Molar ratio (Nucleotide/UCP) 1.62611, pH 6.0, 20 °C): 0.6153
isotherm data point (enthalpy change per injection) ([4]; Molar ratio (Nucleotide/UCP) 1.69692, pH 6.0, 20 °C): 0.02513
isotherm data point (enthalpy change per injection) ([4]; Molar ratio (Nucleotide/UCP) 1.76819, pH 6.0, 20 °C): -0.2521
isotherm data point (enthalpy change per injection) ([4]; Molar ratio (Nucleotide/UCP) 1.83995, pH 6.0, 20 °C): 0.8236
isotherm data point (enthalpy change per injection) ([4]; Molar ratio (Nucleotide/UCP) 1.91217, pH 6.0, 20 °C): 0.03383
isotherm data point (enthalpy change per injection) ([4]; Molar ratio (Nucleotide/UCP) 1.98488, pH 6.0, 20 °C): 0.2054
